Laboratory results from patent EP0231151A2, “Immunosuppressant agents” (priority 1986, dated 1987).
Read-outs that look alike come from different tables or passages of the source.

Assays:
[1] = tested on: basal serum prolactin levels; assay: Lowering basal serum prolactin levels in the male rat (prolactin secretion inhibition); assay type: in vivo; conditions: lowering basal serum prolactin levels, male rat, after 4 hours; read-out: ID50 after 4 hours
Source text: Many of the above mentioned compounds are published as prolactin secretion inhibitors, some of which are extremely potent and have long lasting activity. The potency of the compounds as prolactin secretion inhibitors can be determined in standard tests, e.g. by lowering basal serum prolactin levels in the male rat.
Results with representative compounds include:-

[2] = tested on: splenic lymphocytes forming lytic antibodies to the SRBC; assay: Antibody producing cell development in the mouse (PFC test), plaque forming cells to SRBC; assay type: in vivo; conditions: for percent change from control at 1 mg/kg/day: Mus musculus, Splenic lymphocyte, sc, 144 h, Test A, 1.0 mg/kg/day s.c., 6 days
Procedure: These methods permit the quantitation of the number of splenic lymphocytes forming lytic antibodies to the SRBC and the distinction between IgM and IgG producing cells.
The intravenous injection of SRBC (5 x 10⁷) in 0.2 ml i.v. served as the primary immunization antigen source in the mouse studies. The mice in these studies were female C57 black of ca 20 grams body weight. All animals were pretreated with the respective compounds for one day prior to the SRBC treatment and daily treated thereafter at 11.00 h for a total of 6 days. The spleens were removed for the determination of PFC numbers to the SRBC antigen.
The spleen cells were suspended in Hepes-buffered Balanced Salt Solution (HBSS), washed once, and resuspended in a volume adjusted according to the expected number of plaque forming cells. The direct quantitiation of IgM-PFC was performed by plaquing 0.1 ml of the diluted splenic cells with 0.025 ml of SRBC (30%), 0.3 ml Agar (0.5% in HBSS), and 0.025 ml complement (guinea pig serum) and plated on Petri dishes. An indirect method of IgG-PFC quantitation was performed with a monoclonal antibody to the IgM (1:4 dilution) plus an anti-gama polyspecific antiserum (1:800) to permit complement fixation. The splenic lymphocytes from each mouse spleen were plated to quantitate IgM- and IgG-PFC in duplicate. All plates were incubated for 4 hours at 37°C and then stored overnight in humidified chambers at 4°C. Plaques were counted by hand with the use of a plaque counter.

[3] = tested on: Local graft versus host (GvH); assay: Local graft versus host (GvH) reaction in the rat, lymph node weight; assay type: in vivo
Procedure: Spleen cells (ca 1 x 10⁷) are taken from 6 week old Wistar/Furth/(W/F) rats and are injected into the left hind paw of female (F 344 x WF) F1 rats weighing about 100 g. The rats had been treated daily with the compound from 7 days before the injection and are treated daily for 3 days thereafter. The difference in weight between the left and right lymph nodes is taken as the parameter for evaluating the reaction.

[4] = Acute toxicity (LD50) in the mouse; conditions: in vivo
Source text: (§1) Toxicity data for some of the comounds of the invention have been published. Such data may be determined by routine experimentation. TOXICITY DATA for representative compounds NTEL = No toxic effect level.

[5] = No toxic effect level (NTEL), repeated oral dosing in rats; conditions: rat, in vivo, 4 weeks, p.o.
Source text: as §1

[6] = tested on: grafted neonatal heart tissue; assay: Grafting of neonatal heart tissue into ears of mice, graft survival with co-administered cyclosporine; assay type: in vivo, mouse; conditions: 0.05 mg/kg/day s.c. with cyclosporine 18 mg/kg/day s.c.; group of 10 animals
Source text: In this in-vivo test the rejection time of grafted neonatal heart tissue was increased by the compounds of the invention.
In one method a small incision was made at the base of the ear of a C 57 BL mouse (H-2^b). Blunt or fine tweezers were used to loosen the dorsal layer of skin from the cartilaginous layer in order to form a pocket. One half of a heart taken from 1 to 2 day old Balb/c mouse (H-2^d) was then inserted in the pocket. At 6 days post grafting and every week thereafter, the heart graft survival was monitored with microelectrodes placed on each side of the graft. A dynograft recorded was used to record electrical activity emanating from the graft. The end point of graft survival was taken as the time when the electrical activity was lost. Untreated mice rejected the implant after 8 1/2 days.
In this model effective immunosuppression was considered to have occurred if the time to rejection was increased to at least 17 days. […] With the compound A at 0.05 mg/kg/day, s.c.), 50 per cent of the heart allografts in a group of 10 animals were active on day 17.

[7] = tested on: lymphocyte responsiveness to allogenic stimulation; assay: Mixed lymphocyte reaction test in mice, 1st variant (responder mice treated, ex vivo 3H thymidine incorporation); conditions: 5 mg/kg s.c., five days
Procedure: The ability of the compounds of the invention to reduce lymphocyte responsiveness to allogenic stimulation is measured in the mixed lymphocyte reaction test (MLR) wherein irradiated allogenic cells from stimulator mice induce a proliferative response in responder histo-incompatible cells.
Responder mice (Balb/c female, 8-10 weeks old) are treated sub-cutaneously for five days with the compounds of the invention. Equal numbers of murine stimulator lymphocytes (from stimulator, CBA, mice; lymphocytes irradiated in vitro with 200 R) and effector lymphocytes from the treated animals or control animals are incubated for five days. The 3H thymidine incorporated into lymphocyte DNA was used as a parameter for cell proliferation in response to an allogenic stimulus. [See S.S.Rich et al, J.Exp.Medicine, (1974), 140, 1588-1693].

[8] = No toxic effect level (NTEL) / tolerability, repeated oral dosing in dogs; conditions: dog, in vivo, over 4 weeks, Beagle dogs, p.o., read-out: Well tolerated dose
Source text: as §1

[9] = combination: 36 mg/kg/day s.c. of Cyclosporine with 0.1 mg/kg/day of compound A

SMILES | ED50 [1] | percent change from control at 1 mg/kg/day ([2]; read-out: IgG % of control) | percent change from control at 1 mg/kg/day ([2]; read-out: IgM % of control) | reduction of IgG titre [2, 9] | reduction of IgM titre [2, 9] | Weight lymph node ([3]; 0.01 mg/kg/day, control ca 63 mg) | Percentage Difference ([3]; 0.01 mg/kg/day, versus control ca 63 mg) | LD50 at 168 h ([4]; iv, over 7 days, read-out: acute LD₅₀ (mouse) i.v.) | LD50 at 336 h ([4]; po, over 14 days, read-out: acute LD₅₀ (mouse) p.o.) | NOAEL at 672 h [5] | heart allografts active on day 17 [6] | dpm x 10^3/10 cells ± SD ([7]; 3H thymidine incorporation) | inhibition at 5 mg/kg ([7]; Mus musculus, Lymphocyte, sc, 120 h, read-out: inhibited the response) | Weight lymph node ([3]; 5 mg/kg/day, control ca 55 mg) | Percentage Difference ([3]; 5 mg/kg/day, versus control ca 55 mg) | NOAEL at 672 h [8]
CCCN1CC(NS(=O)(=O)N(CC)CC)CC2Cc3c(O)cccc3CC21 (stereo not shown) [Compound A] | 0.03 mg/kg | -71.6% | -55.4% | 79.1% | 62.6% | ca 50 mg | -21% | 17 mg/kg | 357 mg/kg | 0.2 to 0.57 mg/kg/day | 50 per cent | – | – | – | – | –
Cc1[nH]c2cccc3c2c1C[C@@H]1[C@@H]3C[C@H](NC(=O)C(C)(C)C)CN1C [Compound E, (5R,8S,10R)-2,6-dimethyl-8α-pivaloylamino-ergoline] | – | – | – | – | – | – | – | – | – | – | – | 103218 ± 21497 dpm x 10^3/10 cells | ~21% | ca 39 mg | -41% | ≥ 3 mg/kg/day
